Assay results from US20250212889A1, “COMPOSITION CONTAINING BACILLUS AMYLOLIQUEFACIENS STRAIN FOR ENHANCING PLANT DISEASE RESISTANCE AND USE THEREOF” (CJ CHEILJEDANG CORPORATION, priority 2022, published 2025).

Tests used:
Format in all cases: in vivo
[1] = tested on: soybeans; assay: Growth promoting ability, shoot weight of soybeans
Protocol: (§1) One week after sowing in pots, root zone treatment of each plant was performed using each 5 ml of BTH, valine, […] powder preparation, and the mixture of […] powder preparation and valine. The root zone treatment with BTH, valine, […] powder preparation, and the mixture of […] powder preparation and valine was performed twice at one week intervals, respectively. One week after the last treatment, a shoot of each treatment group was cut and weighed.

[2] = tested on: cucumbers; assay: Growth promoting ability, shoot weight of cucumbers
Protocol: as §1

[3] = tested on: Phytophthora sojae; assay: Mixed treatment pot experiment, soybean Phytophthora stem and root rot; details: soybeans, valine 0.05% in mixed treatment, compared to the untreated group
[4] = tested on: Phytophthora sojae; assay: Mixed treatment glass greenhouse experiment, soybean Phytophthora stem and root rot; details: soybeans, compared to the untreated group
Protocol: The subject of the experiment was soybeans. Plant preparation, treatment with […] powder preparation and valine, and treatment of soybean Phytophthora stem and root rot were performed in the same manner as Example 7. […] The control value was calculated as follows. [formula]

[5] = tested on: Pseudomonas syringae pv. lachrymans; assay: Mixed treatment pot experiment, cucumber bacterial leaf blight; details: cucumbers, valine 0.05% in mixed treatment, compared to the untreated group
[6] = tested on: Pseudomonas syringae pv. tomato DC3000; assay: Induced resistance, population of pathogens in Arabidopsis thaliana leaves; details: Arabidopsis thaliana leaf disc, root zone treatment, 3 days after Pst inoculation
Protocol: To this end, Arabidopsis thaliana which is a plant model was used, and Pseudomonas syringae pv. tomato DC3000 (hereinafter, referred to as Pst) causing leaf spot was used as a pathogen. To grow the plant, the surface of seeds of Arabidopsis thaliana was sterilized by immersing the seeds in 3% sodium hypochlorite (NaOCI) for 5 minutes. Thereafter, the seeds were rinsed five times using sterile water and then sown in a pot, and cultured in a plant incubator (12-hour light and 23° C. temperature conditions) for 3 weeks, followed by root zone treatment with each 50 ml of benzothiadiazole (BTH), serenade, N351 strain, valine, and mixture of N351 strain and valine. 7 days after treatment, the pathogen was inoculated and the population of pathogens was examined 0 day and 3 days later. To examine the population of pathogens, the leaves were cut into 1 cm discs using a cork borer and placed in an e-tube containing 1 ml of sterile water and beads. The leaves were ground for 2 minutes at 6000 rpm using a homogenizer (Bertin), and the population of pathogens in the juice was examined.

[7] = tested on: Pathogenesis-related protein (PR) 1a promoter GUS fusion construct; assay: Induced resistance, PR1a promoter GUS expression; details: Arabidopsis thaliana leaves, 0 to 3 days after disease treatment
[8] = root zone treatment 5 ml twice, one week after last treatment

## CSC(=O)c1cccc2nnsc12 [BTH, benzo (1,2,3)-thiadiazile-7-carbothioic acid S-methyl ester, reference compound]
[1]
  growth compared to the untreated control group: rather inhibited
[2]
  growth compared to the untreated control group: growth inhibition

## CC(C)[C@H](N)C(=O)O [valine]
[3]
  control value: 36%
[4]
  control value: 24%
[5]
  control value: 38%
[6]
  population of pathogens: 8 LogCFU/disc
[7]
  GUS activity/expression (PR1a): most strongly induced 1 day after disease treatment, and expression became weaker over time
[1]; [8]
  shoot weight, average: 9.3 g
[1]; vs untreated group of 8.2 g
  growth further promoted compared to the untreated group: 1.1 g
[2]; [8]
  shoot weight, average: 14 g
[2]; vs untreated group of 12.6 g
  growth further promoted compared to the untreated group: 1.4 g
